Source: ChEMBL document CHEMBL1201862, “PubChem BioAssay data set” (2004)
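Grown in 96-well plates, cells were treated for 48 hours with each compound at five concentrations. Insufficient inhibition: endpoint recorded as highest concentration tested. GI50 is the concentration that inhibits growth by half.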 The source made the active and inactive calls. Cut-off read from the data, not from the text of the source: active = GI50 up to about 1.1 µM and inactive = higher.

How the values were obtained:
Assay in all cases: NCI-60 cell line screen, 48 h
[1] = system: MCF7
[2] = system: SN12C
[3] = system: NCI-H460
[4] = system: RPMI-8226
[5] = system: SNB-19
[6] = system: A498
[7] = system: 786-0
[8] = system: UO-31
[9] = system: UACC-62
[10] = system: NCI-H226
[11] = system: LOX IMVI
[12] = system: SF-295
[13] = system: MOLT-4
[14] = system: PC-3
[15] = system: HCT-15
[16] = system: COLO 205
[17] = system: SF-268
[18] = system: A549
[19] = system: RXF 393
[20] = system: OVCAR-4

SMILES	GI50 [1]	GI50 [2]	GI50 [3]	GI50 [4]	GI50 [5]	GI50 [6]	GI50 [7]	GI50 [8]	GI50 [9]	GI50 [10]	GI50 [11]	GI50 [12]	GI50 [13]	GI50 [14]	GI50 [15]	GI50 [16]	GI50 [17]	GI50 [18]	GI50 [19]	GI50 [20]
CCOC(=O)c1c(C)c(C)n2c1NC(=O)C2	25.2 µM (inactive)	> 54.3 µM (inactive)	> 53.1 µM (inactive)	> 48 µM (inactive)	55.3 µM (inactive)	> 100 µM (inactive)	> 49.7 µM (inactive)	> 64.3 µM (inactive)	> 60.3 µM (inactive)	> 100 µM (inactive)	> 68.7 µM (inactive)	> 80 µM (inactive)	> 100 µM (inactive)	36.8 µM (inactive)	> 61.1 µM	> 73.6 µM (inactive)	> 42.8 µM (inactive)	> 82.6 µM (inactive)	> 40.4 µM (inactive)	> 100 µM (inactive)
Cc1nn(-c2cc(Cl)ccc2[N+](=O)[O-])c(C)c1Cl	> 100 µM (inactive)	> 100 µM (inactive)	70.5 µM (inactive)	87.7 µM (inactive)	> 100 µM (inactive)	> 100 µM (inactive)	> 100 µM (inactive)	20.8 µM (inactive)	> 100 µM (inactive)	65.8 µM (inactive)	> 100 µM (inactive)	> 100 µM (inactive)	13.6 µM (inactive)	51.2 µM (inactive)	40.6 µM	> 100 µM (inactive)	> 100 µM (inactive)	71.1 µM (inactive)	2.72 µM (inactive)	> 100 µM (inactive)
CC1CNC(c2ccc3c(c2)Cc2cc(C4=NC(C)CN4)ccc2-3)=N1 (stereo not given)	17.7 µM (inactive)	48.1 µM (inactive)	26.6 µM (inactive)	36.6 µM (inactive)	36.6 µM (inactive)	> 100 µM (inactive)	54.3 µM (inactive)	> 100 µM (inactive)	28.6 µM (inactive)	55.7 µM (inactive)	47.2 µM (inactive)	71.9 µM (inactive)	37.8 µM (inactive)	43.8 µM (inactive)	> 100 µM	54 µM (inactive)	26.1 µM (inactive)	> 100 µM (inactive)	> 100 µM (inactive)	19.1 µM (inactive)
OCC1OC(N2CCN(C3OC(CO)C(O)C(O)C3O)CC2)C(O)C(O)C1O (stereo not given)	> 100 µM (inactive)	> 100 µM (inactive)	> 100 µM (inactive)	> 100 µM (inactive)	> 100 µM (inactive)	> 100 µM (inactive)	> 100 µM (inactive)	> 100 µM (inactive)	> 100 µM (inactive)	> 100 µM (inactive)	> 100 µM (inactive)	> 100 µM (inactive)	> 100 µM (inactive)	> 100 µM (inactive)	> 100 µM	> 100 µM (inactive)	> 100 µM (inactive)	> 100 µM (inactive)	> 100 µM (inactive)	> 100 µM (inactive)
COC(=O)C1=C(O)C(C(=O)OC)[C@]2(O)[C@H](C(=O)OC)[C@H]1C[C@@H](c1ccc(C(F)(F)F)cc1)[C@H]2C(=O)OC (stereo not given in full)	3.5 µM (inactive)	4.47 µM (inactive)	3.34 µM (inactive)	2.51 µM (inactive)	3.87 µM (inactive)	3.37 µM (inactive)	3.44 µM (inactive)	2.84 µM (inactive)	3.87 µM (inactive)	1.33 µM (inactive)	2.45 µM (inactive)	4 µM (inactive)	2.07 µM (inactive)	3.48 µM (inactive)	2.82 µM	3.18 µM (inactive)	4.47 µM (inactive)	3.74 µM (inactive)	2.17 µM (inactive)	5.55 µM (inactive)
CC1=CN(c2ccccc2)S2=C1c1sc3c(c1N2c1ccc(Br)cc1)CCCC3 (stereo not given)	> 100 µM (inactive)	> 100 µM (inactive)	> 100 µM (inactive)	> 100 µM (inactive)	> 100 µM (inactive)	> 100 µM (inactive)	> 100 µM (inactive)	> 100 µM (inactive)	> 100 µM (inactive)	> 100 µM (inactive)	97.1 µM (inactive)	> 100 µM (inactive)	> 100 µM (inactive)	> 100 µM (inactive)	> 100 µM	> 100 µM (inactive)	> 100 µM (inactive)	> 100 µM (inactive)	> 100 µM (inactive)	> 100 µM (inactive)
COc1cc2c3c4c1OCc1c5c(cc(c1-4)CC3[N+](C)(C)CC2)OCO5 (stereo not given)	> 100 µM (inactive)	3.21 µM (inactive)	> 100 µM (inactive)	> 100 µM (inactive)	4.33 µM (inactive)	> 100 µM (inactive)	4.33 µM (inactive)	> 100 µM (inactive)	> 100 µM (inactive)	32.3 µM (inactive)	> 100 µM (inactive)	6.05 µM (inactive)	> 100 µM (inactive)	> 100 µM (inactive)	> 100 µM	> 100 µM (inactive)	2.79 µM (inactive)	> 100 µM (inactive)	> 100 µM (inactive)	> 100 µM (inactive)
C/C(=C/CC[C@]1(CO)CC[C@]2(C)[C@H](CC[C@@H]3[C@@]4(C)CC[C@H](OC5OC(CO)C(O)C(O)C5OC5OC(CO)C(O)C(O)C5O)C(C)(C)[C@@H]4CC[C@]32C)[C@H]1O)CO (stereo not given in full)	> 100 µM (inactive)	> 100 µM (inactive)	> 100 µM (inactive)	> 100 µM (inactive)	> 100 µM (inactive)	> 100 µM (inactive)	> 100 µM (inactive)	> 100 µM (inactive)	> 100 µM (inactive)	> 100 µM (inactive)	> 100 µM (inactive)	> 100 µM (inactive)	> 100 µM (inactive)	> 100 µM (inactive)	> 100 µM	> 100 µM (inactive)	> 100 µM (inactive)	> 100 µM (inactive)	> 100 µM (inactive)	> 100 µM (inactive)
NC(=O)CSc1nc2ccccc2c(=O)n1N	> 100 µM (inactive)	> 100 µM (inactive)	> 100 µM (inactive)	> 100 µM (inactive)	> 100 µM (inactive)	> 100 µM (inactive)	> 100 µM (inactive)	> 100 µM (inactive)	> 100 µM (inactive)	> 100 µM (inactive)	> 100 µM (inactive)	> 100 µM (inactive)	> 100 µM (inactive)	> 100 µM (inactive)	> 100 µM	> 100 µM (inactive)	> 100 µM (inactive)	> 100 µM (inactive)	> 100 µM (inactive)	> 100 µM (inactive)
CC(=O)Oc1ccc2c(c1)c1c(=O)oc(C)nc1n2Cc1ccccc1	47.8 µM (inactive)	66.8 µM (inactive)	> 65.2 µM (inactive)	56.4 µM (inactive)	69.8 µM (inactive)	23.4 µM (inactive)	39.6 µM (inactive)	2.79 µM (inactive)	16.3 µM (inactive)	24.8 µM (inactive)	32 µM (inactive)	43.6 µM (inactive)	71.8 µM (inactive)	41.8 µM (inactive)	26.7 µM	24.6 µM (inactive)	17.6 µM (inactive)	67.5 µM (inactive)	14.8 µM (inactive)	> 75.7 µM (inactive)
C=C1C(=O)O[C@H]2[C@@H]3O[C@@](C)(CC/C=C(\C)CCC[C@@H]2C)[C@H](O)C[C@@H]13	2.08 µM (inactive)	2.28 µM (inactive)	2.99 µM (inactive)	2.25 µM (inactive)	> 10 µM (inactive)	25.1 µM (inactive)	2.75 µM (inactive)	2.87 µM (inactive)	3.73 µM (inactive)	2.11 µM (inactive)	2.86 µM (inactive)	13.9 µM (inactive)	3.08 µM (inactive)	8.49 µM (inactive)	2.56 µM	2.42 µM (inactive)	16.8 µM (inactive)	6.79 µM (inactive)	3.94 µM (inactive)	7.18 µM (inactive)
Cc1ccccc1OC(C)C(=O)NN1C(=O)CC(=O)N(c2ccc(Cl)cc2)C1=S (stereo not given)	31.3 µM (inactive)	34.3 µM (inactive)	31 µM (inactive)	34.4 µM (inactive)	61.1 µM (inactive)	20.7 µM (inactive)	34 µM (inactive)	41 µM (inactive)	27.9 µM (inactive)	31.5 µM (inactive)	29 µM (inactive)	36.8 µM (inactive)	30.5 µM (inactive)	31.9 µM (inactive)	30.1 µM	23.3 µM (inactive)	50.9 µM (inactive)	43.9 µM (inactive)	25 µM (inactive)	38.5 µM (inactive)
C[N+]1(CCN[N+]2(C)CCCCC2)CCc2ccccc2C1 (stereo not given)	> 100 µM (inactive)	> 100 µM (inactive)	> 100 µM (inactive)	> 100 µM (inactive)	> 100 µM (inactive)	> 100 µM (inactive)	> 100 µM (inactive)	> 100 µM (inactive)	> 100 µM (inactive)	60.4 µM (inactive)	> 100 µM (inactive)	> 100 µM (inactive)	> 100 µM (inactive)	> 100 µM (inactive)	> 100 µM	> 100 µM (inactive)	> 100 µM (inactive)	> 100 µM (inactive)	> 100 µM (inactive)	> 100 µM (inactive)
C[n+]1ccccc1/C1=c2\cc/c([nH]2)=C(\c2cccc[n+]2C)C2=N/C(=C(/c3cccc[n+]3C)C3C=CC(N3)/C(c3cccc[n+]3C)=C3/C=CC1=N3)C=C2	> 100 µM (inactive)	> 100 µM (inactive)	40.9 µM (inactive)	56.1 µM (inactive)	> 100 µM (inactive)	> 100 µM (inactive)	> 100 µM (inactive)	> 100 µM (inactive)	> 100 µM (inactive)	> 100 µM (inactive)	> 100 µM (inactive)	> 100 µM (inactive)	58.1 µM (inactive)	> 100 µM (inactive)	> 100 µM	75.2 µM (inactive)	> 100 µM (inactive)	> 100 µM (inactive)	> 100 µM (inactive)	> 100 µM (inactive)
